From the NIST ThermoML archive (doi:10.1016/j.jct.2006.04.009) come the findings set out here.

The structures appear in SMILES notation. Numbers after ± are expanded uncertainties.

The conditions of the series: Liquid.

Broadly, the vapor or sublimation pressure is the equilibrium pressure above the liquid or solid. In the case of `FC(F)C(F)(F)F` [pentafluoroethane], the “vapor or sublimation pressure” value (313.15 K) stood at 2009 ± 24 kPa, the “vapor or sublimation pressure” value (323.15 K) is given as 2537 ± 30 kPa and the “vapor or sublimation pressure” value (333.15 K) was 3170 ± 37 kPa.

In the case of `COC` [dimethyl ether], the “vapor or sublimation pressure” value is, setting by setting: (313.15 K) 887 ± 10 kPa; (323.15 K) 1147 ± 13 kPa; (333.15 K) 1451 ± 17 kPa; (343.15 K) 1817 ± 21 kPa; (353.15 K) 2251 ± 26 kPa; (363.15 K) 2738 ± 32 kPa.
